Among the data in PubChem BioAssay (NCI) are TGI values, retold here.

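Growth conditions: 96-well plates. Treatment: test compound, 48 hours, 5 concentrations. Analysis: linear interpolation between bracketing concentrations; unreached endpoints set to highest concentration. At the TGI there is no net growth.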 Where only a bound is given, the exact number is not on record here.

Among the test systems are NCI-H23 lung; RPMI-8226 leukemia; NCI-H522 lung; MDA-MB-231 breast; MDA-N; U251 CNS; SF-539 CNS; A549 NSCLC; OVCAR-8 ovarian; HL-60(TB) leukemia; UACC-257 melanoma; M14 melanoma; CAKI-1 renal; MCF7 breast; MALME-3M melanoma; HT29 colon; LOX IMVI melanoma; RXF 393 renal; SR leukemia.
What all share (assay): NCI tumour cell line growth inhibition, 48 h

Regarding `CCOC(=O)c1c(C)n(C)c2c1cc(O)c1[nH]c3c(c12)CCCC3`, the TGI stood at 52.7 µM with NCI-H23 lung; 18.7 µM in the assay with RPMI-8226 leukemia; 28.7 µM with NCI-H522 lung; 43.9 µM with MDA-MB-231 breast; 34.3 µM in the assay with MDA-N; 36.8 µM in the assay on U251 CNS. In addition, the TGI with SF-539 CNS is 37.9 µM; in the assay with A549 NSCLC, 58.7 µM; in the assay on OVCAR-8 ovarian, 66.3 µM; in the assay on HL-60(TB) leukemia it was 46.7 µM; with UACC-257 melanoma it was 31.7 µM; in the assay on M14 melanoma, 29.2 µM. Moreover, the TGI is above 100 µM in the assay on CAKI-1 renal; 19.4 µM with MCF7 breast; 31.7 µM in the assay on MALME-3M melanoma; 49.4 µM in the assay on HT29 colon; 29.7 µM with LOX IMVI melanoma.

Consider `O=C(O)[C@H](Cc1ccccc1)NCCN1CCC[C@H]1C(=O)O`, for which the TGI in the assay with NCI-H23 lung, in the assay on RPMI-8226 leukemia, in the assay on NCI-H522 lung, with MDA-MB-231 breast, in the assay with MDA-N and in the assay on U251 CNS was above 100 µM each time. Moreover, the TGI in the assay on SF-539 CNS, with A549 NSCLC, with OVCAR-8 ovarian, in the assay with M14 melanoma, in the assay with CAKI-1 renal and with MCF7 breast was above 100 µM in each case. Moreover, the TGI with MALME-3M melanoma, with HT29 colon and with RXF 393 renal was above 100 µM each time.

For `CC(=O)O[C@@]12CO[C@@H]1C[C@@H](O)[C@@]1(C)C(=O)[C@H](O)C3=C(C)[C@@H](OC(=O)[C@H](O)[C@@H](NC(=O)c4ccccc4)c4ccccc4)C[C@@](O)([C@@H](OC(=O)c4ccccc4)C12)C3(C)C` (some centres undefined), the TGI was above 100 µM with RPMI-8226 leukemia; 43.8 µM with MDA-MB-231 breast; above 100 µM in the assay with U251 CNS; 0.0579 µM in the assay on SF-539 CNS; above 100 µM in the assay with A549 NSCLC; above 100 µM with OVCAR-8 ovarian. Also, the TGI with HL-60(TB) leukemia was above 39.9 µM; in the assay on UACC-257 melanoma it was above 100 µM; in the assay with M14 melanoma, above 100 µM; in the assay with SR leukemia, above 50.1 µM; in the assay on CAKI-1 renal, above 100 µM; in the assay with MCF7 breast it was above 100 µM. Besides, the TGI in the assay on HT29 colon was 0.124 µM; in the assay on RXF 393 renal it was 35.4 µM; with LOX IMVI melanoma, 41.9 µM.

`CC(C)Oc1cccc(N2C(=NCCc3c[nH]c4ccccc34)Nc3ccncc3S2(=O)=O)c1`: the TGI in the assay with NCI-H23 lung, in the assay with RPMI-8226 leukemia, with NCI-H522 lung, with U251 CNS, in the assay on SF-539 CNS and in the assay with A549 NSCLC was above 100 µM throughout. The TGI in the assay on OVCAR-8 ovarian is above 100 µM; with HL-60(TB) leukemia, 65.4 µM; in the assay with UACC-257 melanoma it was above 100 µM; in the assay on M14 melanoma, above 100 µM; in the assay with SR leukemia, above 100 µM; with CAKI-1 renal, above 100 µM. Moreover, the TGI was above 100 µM in the assay on MCF7 breast; above 100 µM in the assay with MALME-3M melanoma; 20.3 µM in the assay with HT29 colon; 44.9 µM with RXF 393 renal; above 100 µM in the assay with LOX IMVI melanoma.

For the molecule `CC1(c2ccc(Cl)s2)CC(c2ccc(Cl)s2)=C(C#N)C(=C(C#N)C#N)N1` (centres undefined), the TGI was 42.2 µM with NCI-H23 lung; above 100 µM with RPMI-8226 leukemia; 47.1 µM in the assay with MDA-MB-231 breast; 49.5 µM in the assay with MDA-N; 33.2 µM with U251 CNS; 68.7 µM with SF-539 CNS. For the same molecule, the TGI in the assay with A549 NSCLC worked out at 48.8 µM; in the assay with OVCAR-8 ovarian, 50.4 µM; in the assay on HL-60(TB) leukemia, 40.1 µM; in the assay on UACC-257 melanoma, 43.4 µM; in the assay on M14 melanoma, 36.4 µM; in the assay with CAKI-1 renal, 34.8 µM. The TGI amounted to 39.9 µM in the assay with MCF7 breast; 43.1 µM in the assay on MALME-3M melanoma; 36.8 µM with HT29 colon; 33.7 µM with RXF 393 renal; 44.3 µM in the assay on LOX IMVI melanoma.

Turning to `O=C1c2ccccc2C(=O)C1C(c1ccc(F)cc1)C1C(=O)c2ccccc2C1=O`, the TGI in the assay on NCI-H23 lung, in the assay with RPMI-8226 leukemia, with NCI-H522 lung, in the assay on U251 CNS, in the assay on SF-539 CNS and in the assay with A549 NSCLC was above 100 µM in each case. For the same molecule, the TGI with OVCAR-8 ovarian, in the assay with HL-60(TB) leukemia, in the assay on UACC-257 melanoma, in the assay on M14 melanoma, in the assay on SR leukemia and in the assay with CAKI-1 renal was above 100 µM each time. Also, the TGI was above 100 µM with MALME-3M melanoma, above 100 µM in the assay with HT29 colon, 71.3 µM in the assay with RXF 393 renal and above 100 µM in the assay on LOX IMVI melanoma.

With `CC1=NN(c2nc(N)nc(C/C(N)=N/O)n2)C(C)(C)C1`, the TGI in the assay on NCI-H23 lung, in the assay with RPMI-8226 leukemia, in the assay on NCI-H522 lung, in the assay with MDA-MB-231 breast, in the assay on U251 CNS and in the assay on SF-539 CNS was above 100 µM each time. For the same molecule, the TGI in the assay on A549 NSCLC, in the assay on OVCAR-8 ovarian, in the assay with HL-60(TB) leukemia, in the assay on UACC-257 melanoma, with M14 melanoma and in the assay on CAKI-1 renal was above 100 µM each time. The TGI with MCF7 breast, in the assay with MALME-3M melanoma, with HT29 colon and in the assay on LOX IMVI melanoma was above 100 µM throughout.

For the molecule `CCOC(=O)c1cc(Br)c(-c2cc(C)no2)[nH]1`, the TGI in the assay with NCI-H23 lung is above 100 µM; in the assay with RPMI-8226 leukemia it was above 100 µM; with NCI-H522 lung, 78.9 µM; in the assay on MDA-MB-231 breast it was above 100 µM; with MDA-N, above 100 µM; with U251 CNS it was above 100 µM. Besides, the TGI was above 100 µM with SF-539 CNS; above 100 µM with A549 NSCLC; above 100 µM in the assay with OVCAR-8 ovarian; 83.6 µM in the assay on HL-60(TB) leukemia; above 100 µM with UACC-257 melanoma; above 100 µM with M14 melanoma. The TGI in the assay on MALME-3M melanoma was 61.3 µM; in the assay on HT29 colon, above 100 µM; in the assay on RXF 393 renal, above 100 µM; in the assay on LOX IMVI melanoma, above 100 µM.
